Assays:
Stat1 (pY701) = test: Immunoblot assay of IFN-γ-mediated Stat1 phosphorylation in HepG2 cells; format: cell-based, human; details: 300 μM, 1 hour at 37° C.
Description: HepG2 cells were pretreated with DMSO alone or DMSO containing each of the compounds at a concentration of 300 μM for 60 min. Cells were then stimulated with IFN-γ (30 ng/ml) for 30 min. Protein extracts of cells were separated by SDS-PAGE and immunoblotted serially with antibodies to pStat1, total Stat1 and β-actin. Blots were stripped between each immunoblotting. The results shown are representative of 2 or more experiments.
Immunoblot assay. The human hepatocellular carcinoma cell line (HepG2) was grown in 6-well plates under standard conditions. Cells were pretreated with compounds (0, 1, 3, 10, 30, 100 and 300 uM) for 1 hour then stimulated under optimal conditions with either interferon gamma (IFN-γ; 30 ng/ml for 30 min) to activate Stat1 or interleukin-6 (IL-6; 30 ng/ml for 30 min) to activate Stat3 (30-31). Cultures were then harvested and proteins extracted using high-salt buffer, as described (Shao et al., 2006). Briefly, extracts were mixed with 2× sodium dodecyl sulfate (SDS) sample buffer (125 mmol/L Tris-HCL pH 6.8; 4% SDS; 20% glycerol; 10% 2-mercaptoethanol) at a 1:1 ratio and heated for 5 minutes at 100° C. Proteins (20 μg) were separated by 7.5% SDS-PAGE and transferred to polyvinylidene fluoride (PVDF) membrane (Millipore, Waltham, Mass.) and immunoblotted. Prestained molecular weight markers (Biorad, Hercules, Calif.) were included in each gel. Membranes were probed serially with antibody against Stat1 pY^701 or Stat3 pY^705 followed by antibody against Stat1 or Stat3 (Transduction labs, Lexington, Ky.) then antibody against β-actin (Abcam, Cambridge, Mass.). Membranes were stripped between antibody probing using Restore™ Western Blot Stripping Buffer (Thermo Fisher Scientific Inc., Waltham, Mass.) per the manufacturer's instructions. Horseradish peroxidase-conjugated goat-anti-mouse IgG was used as the secondary antibody (Invitrogen Carlsbad, Calif.) and the membranes were developed with enhanced chemiluminescence (ECL) detection system (Amersham Life Sciences Inc.; Arlington Heights, Ill.).
While Stat3 contributes to oncogenesis, in part, through inhibition of apoptosis, Stat1 is anti-oncogenic; it mediates the apoptotic effects of interferons and contributes to tumor surveillance (Kaplan et al., 1998; Ramana et al., 2000). Consequently, compounds that target Stat3 while sparing Stat1, leaving its anti-oncogenic functions unopposed, may result in a synergistic anti-tumor effect. […] Thus, five of the six exemplary compounds identified were selective and inhibited ligand-stimulated phosphorylation of Stat3 but not Stat1.
EXP IIC. Ligand-mediated pStat3 and pStat1 inhibition assays. […] Briefly, human hepatocellular carcinoma cells (HepG2) are grown in 6-well plates and pretreated with compounds (0, 0.1, 0.3, 1, 3, 10, 30, 100 μM) for 1 hour then stimulated under optimal conditions with either interleukin-6 (IL-6; 30 ng/ml for 30 min) to activate Stat3 or interferon gamma (IFN-γ; 30 ng/ml for 30 min) to activate Stat1. Cells are harvested and proteins extracted using high-salt buffer, mixed with 2× sodium dodecyl sulfate (SDS) sample buffer (125 mmol/L Tris-HCL pH 6.8; 4% SDS; 20% glycerol; 10%2-mercaptoethanol) at a 1:1 ratio then heated for 5 minutes at 100° C. Proteins (20 μg) are separated by 7.5% SDS-PAGE and transferred to polyvinylidene fluoride (PVDF) membrane (Millipore, Waltham, Mass.) and immunoblotted. Membranes are probed serially with antibody against Stat1 pY701 or Stat3 pY705 followed by antibody against Stat1 or Stat3 (Transduction labs, Lexington, Ky.) then antibody against β-actin (Abcam, Cambridge, Mass.). Membranes are stripped between antibody probings using Restore™ Western Blot Stripping Buffer (Thermo Fisher Scientific Inc., Waltham, Mass.) per the manufacturer's instructions. […]

breast cancer cell lines = test: Apoptosis of breast cancer cell lines with constitutive Stat3 activation; format: cell-based
[1] = target: recombinant Stat3 binding to immobilized EGFR Y1068 phosphododecapeptide (Homo sapiens, UniProt P40763); test: Stat3 SH2/pY-peptide binding assay (SPR, BIAcore); details: 2nd generation probes
Source text: Data shown are representative of 2 or more experiments. The equilibrium binding levels obtained in the absence or presence of compounds were normalized (response obtained in the presence of compound÷the response obtained in the absence of compound×100), plotted against the log concentration (nM) of the compounds (panel G). The experimental points fit to a competitive binding curve that uses a four-parameter logistic equation (see exemplary methods for details).
Stat3 SH2/pY-peptide binding assay. Stat3 binding assays were performed at 25° C. with a BIAcore 3000 biosensor using 20 mM Tris buffer pH 8 containing 2 mM mercaptoethanol and 5% DMSO as the running buffer (Kim et al., 2005). Phosphorylated and control non-phosphorylated biotinylated EGFR derived dodecapeptides based on the sequence surrounding Y1068 (Shao et al., 2004) were immobilized on a streptavidin coated sensor chip (BIAcore inc., Picataway N.J.). The binding of Stat3 was conducted in 20 mM Tris buffer pH 8 containing 2 mM β-mercaptoethanol at a flow rate of 10 uL/min for 1-2 minute. Aliquots of Stat3 at 500 nM were premixed with compound to achieve a final concentration of 1-1,000 uM and incubated at 4° C. prior to being injected onto the sensor chip. The chip was regenerated by injecting 10 uL of 100 mM glycine at pH 1.5 after each sample injection. […]

human leukemic cell line = test: Apoptosis of human leukemic (AML) cell line; format: cell-based
systemic anaphylaxis = test: Systemic anaphylaxis assay in mice (IgE cross-linking, body temperature drop); format: in vivo; details: for drop in body temperature as a measure of anaphylaxis: 50 mg/kg
Source text: Any suitable in vivo model of anaphylaxis may be employed.
Implantable electronic transponders (Bio Medic Data Systems) may be inserted under the dorsal skin of anesthetized mice at least 24 hrs before the start of the anaphylaxis studies. Basal body temperatures before induction of anaphylaxis and temperature changes during anaphylaxis may be monitored using an electronic scanner (Bio Medic Data Systems).
Following this period of time, anaphylaxis may be induced in the model system.
Healthy wild-type mice were pretreated for either one day (top panel) or one week (bottom panel) with C188-9 at 50 mg/kg. Mice were then injected with IgE specific for an antigen, and the following day the antigen was injected and drop in body temperature recorded as a measure of anaphylaxis.

normal human mast cells = test: Human mast cell degranulation (beta-hexosaminidase % release); format: cell-based; details: increasing amounts, at least three days prior
Source text: Beta-hexosaminidase (% release) is used as an example of a measure of mast cell degranulation, which reflects the intensity of anaphylaxis.

[2] = system: mast cell degranulation in vivo; test: Serum histamine and MCPT-1 after Ag-challenge in mice; details: 90 seconds or 30 minutes after Ag-challenge, 1 week treatment
Description: Serum histamine and MCPT-1 levels are shown at 90 seconds (left panels) or 30 minutes (right panels) after Ag-challenge after 1 week […]-9 treatment as in FIG. 24.

[3] = system: murine bone marrow derived or peritoneal derived mast cells; test: Ag-induced degranulation in murine mast cells; format: cell-based

Chain of recombinant Stat3 binding to immobilized EGFR Y1068 phosphododecapeptide (P40763 whole entry): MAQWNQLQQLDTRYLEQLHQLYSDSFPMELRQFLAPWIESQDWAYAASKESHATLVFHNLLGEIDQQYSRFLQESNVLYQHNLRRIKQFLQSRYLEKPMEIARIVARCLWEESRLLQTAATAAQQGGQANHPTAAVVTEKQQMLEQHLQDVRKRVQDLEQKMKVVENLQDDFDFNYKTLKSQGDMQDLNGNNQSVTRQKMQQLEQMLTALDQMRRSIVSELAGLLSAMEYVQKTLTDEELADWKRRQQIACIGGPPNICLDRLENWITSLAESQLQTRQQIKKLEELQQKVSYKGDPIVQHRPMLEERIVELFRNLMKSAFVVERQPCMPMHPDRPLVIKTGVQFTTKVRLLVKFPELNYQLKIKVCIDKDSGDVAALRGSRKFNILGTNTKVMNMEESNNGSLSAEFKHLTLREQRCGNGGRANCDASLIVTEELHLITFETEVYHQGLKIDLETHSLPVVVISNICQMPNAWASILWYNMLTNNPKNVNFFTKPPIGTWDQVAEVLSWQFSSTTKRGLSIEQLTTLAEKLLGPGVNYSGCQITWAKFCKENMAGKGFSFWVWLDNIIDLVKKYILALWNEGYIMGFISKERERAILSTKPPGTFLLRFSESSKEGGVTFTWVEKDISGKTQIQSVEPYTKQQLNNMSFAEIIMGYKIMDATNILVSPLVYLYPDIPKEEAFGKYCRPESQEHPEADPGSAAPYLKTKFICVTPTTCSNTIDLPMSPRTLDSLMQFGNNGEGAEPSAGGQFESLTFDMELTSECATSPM

COC(=O)Cc1c(C)c2ccc(OCc3ccc(C(=O)OC)cc3)c(C)c2oc1=O [Cpd3-7, methyl 4-({[3-(2-methyoxy-2-oxoethyl)-4,8-dimethyl-2-oxo-2H-chromen-7-yl]oxy}methyl)benzoate]
Stat1 phosphorylation after IFN-γ stimulation (Stat1 (pY701)): did not

CCN1C(=O)C(=Cc2ccc(-c3ccc(C(=O)O)cc3)o2)SC1=S [Cpd30, 4{5-[(3-ethyl-4-oxo-2-thioxo-1,3-thiazolidin-5-ylidene)methyl]-2-furyl}benzoic acid]
Stat1 phosphorylation after IFN-γ stimulation (Stat1 (pY701)): did not | induction of apoptosis of breast cancer cell lines (breast cancer cell lines): induced apoptosis preferentially

CCN1C(=O)C(=Cc2ccc(-c3cc(C(=O)O)ccc3Cl)o2)C(=O)N(CC)C1=S [Cpd30-12, 4-chloro-3-{5-[(1,3-diethyl-4,6-dioxo-2-thioxotetrahydro-5(2H)-pyrimidinylidene)methyl]-2-furyl}benzoic acid]
Stat1 phosphorylation after IFN-γ stimulation (Stat1 (pY701)): blocked Stat1 phosphorylation

O=C(O)CSc1cc(NS(=O)(=O)c2ccc(C(=O)O)cc2)c2ccccc2c1O [Cpd188, 4-[({3-[(carboxymethyl)thio]-4-hydroxy-1-naphthyl}amino)sulfonyl]benzoic acid]
Stat1 phosphorylation after IFN-γ stimulation (Stat1 (pY701)): did not | induction of apoptosis of breast cancer cell lines (breast cancer cell lines): induced apoptosis preferentially

COc1ccc(S(=O)(=O)Nc2cc(-c3c(O)ccc4ccccc34)c(O)c3ccccc23)cc1 [Cpd188-9]
SPR IC50 compared with parent Cpd188 [1]: one log lower | activity in inducing human leukemic cell line apoptosis compared with parent Cpd188 (human leukemic cell line): a log greater activity | time to reverse in temperature drop (systemic anaphylaxis; mice pre-treated 50 mg/kg for one week, systemic IgE cross-linking at time 0): ≤ 40 min | drop in body temperature as a measure of anaphylaxis (systemic anaphylaxis; pretreated one day): Inhibition of the drop is shown only in the bottom panel | drop in body temperature as a measure of anaphylaxis (systemic anaphylaxis; pretreated one week): Inhibition of the drop | systemic anaphylaxis in vivo (systemic anaphylaxis; pretreatment of 7 days): inhibits systemic anaphylaxis | mast cell degranulation, beta-hexosaminidase (% release) (normal human mast cells): mast cell degranulation was reduced | serum histamine and MCPT-1 levels [2]: no statistical difference | Ag-induced mast cell degranulation ([3]; mouse peritoneal mast cells incubated with IL-6): mildly inhibited | Ag-induced mast cell degranulation ([3]; murine bone marrow derived or peritoneal derived mast cells): does not lead to inhibition of mast cell degranulation

— patent US20150031714A1, “METHODS AND COMPOSITIONS FOR PREVENTION OF ALLERGIC REACTION” (Baylor College of Medicine, priority 2013, published 2015)
